Experimental data from publication PMC11990670, “Exploring the Volatility, Phase Transitions, and Solubility Properties of Five Halogenated Benzaldehydes” (Molecules, 2025).
Marks after values point to notes of the source that are not given here.

Legend:
[1] = Vapor pressures of crystalline and liquid phases, static method with capacitance diaphragm gauge; assay type: physicochemical
From the text: A previously described and tested static apparatus was used to measure the vapor pressures of the condensed phases (both crystalline and liquid) of the five compounds studied. This installation employs MKS capacitance diaphragm absolute gauges, operating at self-regulated constant temperatures. Our lab is equipped with three pressure gauges. Gauge I, a Baratron 631A01TBEH (MKS instruments, Andover, MA, USA) (Tgauge = 423 K), measures pressures in the range of 0.5 to 1.3 × 10^2 Pa and operates within a temperature range of 253 to 413 K. Gauge II, the instrument used in this study, is a Baratron 631A11TBFP (MKS instruments, Andover, MA, USA) (Tgauge = 473 K), capable of measuring pressures from 0.5 to 1.3 × 10^3 Pa within a temperature range of 253 to 433 K and gauge III, a Baratron 631D02T8FP (MKS instruments, Andover, MA, USA) (Tgauge = 473 K), designed to measure pressures between 0.5 Pa and 2.6 × 10^2 Pa, also within a temperature range of 253 to 433 K. The temperatures of the samples were measured using a Pt100 platinum resistance thermometer, calibrated by comparison with a standard platinum resistance thermometer (SPRT: Tinsley Precision Instruments Ltd, London, England). To prevent vapor condensation, the tubing connecting the cell containing the condensed sample to the pressure gauge is maintained at a temperature higher than that of the sample but lower than that of the gauge. The uncertainty in temperature measurements is estimated to be u(T/K) = ±0.01, and the expanded uncertainties (0.95 confidence level, k = 2) in pressure measurements are given by the expression U(p/Pa) = 0.1 + 0.0050 (p/Pa) for the gauge used. Samples were thoroughly degassed before starting the vapor pressure measurements, ensuring consistent readings at specific temperatures and eliminating any residual volatile substances, including water.

[2] = pH of the saturated aqueous solutions; assay type: physicochemical; conditions: saturated aqueous solution of the solubility experiment
Experimental: The concentration was measured by absorbances at 260 nm for 4-chlorobenzaldehyde, 263 nm for 4-bromobenzaldehyde and 2,4-dichlorobenzaldehyde, 297 nm for 2,6-dichlorobenzaldehyde, and 306 nm for 2,3-dichlorobenzaldehyde, using a Cary-60 UV–vis (Agilent) spectrophotometer. X-ray diffraction (XRD) and differential scanning calorimetry of residual solids were used to identify the eventual phase transformations. The purified samples of each compound studied were used for all experimental determinations, including the solubility measurements. After reaching the equilibrium, the residual solid was dried and analyzed using both DSC and XRD. The melting properties obtained from DSC were compared with those of the original purified sample, following the same procedure for the XRD analysis. […] As an example, the supporting information includes two thermograms and two XRD patterns for 2,4-dichlorobenzaldehyde (Figures S1 and S2). […] Equation (4) was derived from Equation (5), which is widely applicable to the solubility of solids.(4) ΔhydrGm°/kJ·mol^−1=9.17−5.71·log10(Scr/mol·m^−3)−ΔcrgGm°/kJ·mol^−1 (5) S=p^°/RTexpΔcrgGm°+ΔhydrGm°/−RT
An excess amount of each compound was added to a known volume of water in triplicate. […] After stirring, the solid phase was allowed to settle for 2 h. The pH of the saturated solutions was measured using a Mettler Toledo (Greifensee, Switzerland) FiveEasy F20 pH Meter calibrated with standard aqueous solutions (pH 7.00 and 4.01 or 10.1). Those solutions were then filtered through a 0.22 μm syringe hydrophilic filter (13 mm, PTFE, Labfil, Zhejiang, China) and diluted to the required concentration. The concentration of the compounds, expressed in molarity, was measured by absorbances using a Cary-60 UV–vis spectrophotometer (Agilent Technologies, Santa Clara, CA, USA) at 298.15 K (single cell Peltier accessory, ±0.15 K). The results reported in Table 6 are averaged from at least three replicates. Calibration was performed using solutions of known concentrations of each substance in water. These solutions were prepared by adding a precise mass of the substance and a specific volume of the solvent to a flask, then mixing until the substance was fully dissolved. The absorbance of these solutions was measured, and calibration curves were created.

O=Cc1cccc(Cl)c1Cl [2,3-Dichlorobenzaldehyde]
vapor pressure p ([1]; crystalline phase, T = 284.21 K): 0.49 Pa
vapor pressure p ([1]; crystalline phase, T = 286.16 K): 0.63 Pa
vapor pressure p ([1]; crystalline phase, T = 288.13 K): 0.78 Pa
vapor pressure p ([1]; crystalline phase, T = 290.09 K): 0.99 Pa
vapor pressure p ([1]; crystalline phase, T = 292.06 K): 1.26 Pa
vapor pressure p ([1]; crystalline phase, T = 294.04 K): 1.58 Pa
vapor pressure p ([1]; crystalline phase, T = 296.22 K): 2.00 Pa
vapor pressure p ([1]; crystalline phase, T = 298.17 K): 2.47 Pa
vapor pressure p ([1]; crystalline phase, T = 299.97 K): 3.02 Pa
vapor pressure p ([1]; crystalline phase, T = 302.18 K): 3.78 Pa
vapor pressure p ([1]; crystalline phase, T = 303.89 K): 4.58 Pa
vapor pressure p ([1]; crystalline phase, T = 305.78 K): 5.63 Pa
vapor pressure p ([1]; crystalline phase, T = 308.08 K): 7.12 Pa
vapor pressure p ([1]; crystalline phase, T = 309.86 K): 8.45 Pa
vapor pressure p ([1]; crystalline phase, T = 312.03 K): 10.58 Pa
vapor pressure p ([1]; crystalline phase, T = 313.92 K): 12.78 Pa
vapor pressure p ([1]; crystalline phase, T = 315.60 K): 15.22 Pa
vapor pressure p ([1]; crystalline phase, T = 317.96 K): 18.67 Pa
vapor pressure p ([1]; crystalline phase, T = 319.59 K): 21.97 Pa
vapor pressure p ([1]; crystalline phase, T = 321.86 K): 27.35 Pa
vapor pressure p ([1]; crystalline phase, T = 323.56 K): 31.92 Pa
vapor pressure p ([1]; crystalline phase, T = 325.70 K): 39.35 Pa
vapor pressure p ([1]; crystalline phase, T = 327.48 K): 45.52 Pa
vapor pressure p ([1]; crystalline phase, T = 329.63 K): 56.32 Pa
vapor pressure p ([1]; crystalline phase, T = 331.62 K): 65.87 Pa
vapor pressure p ([1]; liquid phase, T = 335.54 K): 91.33 Pa
vapor pressure p ([1]; liquid phase, T = 337.55 K): 103.4 Pa
vapor pressure p ([1]; liquid phase, T = 339.54 K): 117.4 Pa
vapor pressure p ([1]; liquid phase, T = 341.49 K): 133.6 Pa
vapor pressure p ([1]; liquid phase, T = 343.48 K): 150.6 Pa
vapor pressure p ([1]; liquid phase, T = 345.45 K): 169.9 Pa
vapor pressure p ([1]; liquid phase, T = 347.44 K): 189.1 Pa
vapor pressure p ([1]; liquid phase, T = 349.41 K): 214.0 Pa
vapor pressure p ([1]; liquid phase, T = 351.50 K): 240.6 Pa
vapor pressure p ([1]; liquid phase, T = 353.48 K): 267.2 Pa
vapor pressure p ([1]; liquid phase, T = 355.36 K): 297.6 Pa
vapor pressure p ([1]; liquid phase, T = 357.43 K): 335.9 Pa
vapor pressure p ([1]; liquid phase, T = 359.33 K): 371.6 Pa
vapor pressure p ([1]; liquid phase, T = 361.39 K): 419.6 Pa
vapor pressure p ([1]; liquid phase, T = 363.27 K): 461.9 Pa
vapor pressure p ([1]; liquid phase, T = 365.34 K): 516.4 Pa
vapor pressure p ([1]; liquid phase, T = 367.35 K): 569.4 Pa
vapor pressure p ([1]; liquid phase, T = 369.27 K): 630.4 Pa
vapor pressure p ([1]; liquid phase, T = 371.17 K): 695.2 Pa
vapor pressure p ([1]; liquid phase, T = 373.23 K): 767.3 Pa
vapor pressure p ([1]; liquid phase, T = 375.13 K): 843.4 Pa
vapor pressure p ([1]; liquid phase, T = 377.17 K): 930.5 Pa
vapor pressure p ([1]; liquid phase, T = 379.07 K): 1011 Pa
vapor pressure p ([1]; liquid phase, T = 381.03 K): 1104 Pa
vapor pressure p ([1]; supercooled liquid, T = 327.59 K): 54.84 ^d Pa
vapor pressure p ([1]; supercooled liquid, T = 329.66 K): 62.05 ^d Pa
vapor pressure p ([1]; supercooled liquid, T = 331.60 K): 71.02 ^d Pa
vapor pressure p ([1]; supercooled liquid, T = 333.65 K): 80.84 ^d Pa
pH of the saturated solution [2]: 6.43
